Measurements taken from PMC12771125, “Compounds Reducing Human Sperm Motility as Potential Nonhormonal Contraceptives Identified Using a High-Throughput Phenotypic Screening Platform” (ACS Omega, 2025).
Values after ≈ are worked out from the molar mass of the structure shown. Like-named read-outs stand apart in the source and are kept apart here.

Experiments:
[1] = system: human sperm; test: Reduction of sperm motility (RSM) high-throughput phenotypic assay; type: cell-based; conditions: for EC50: Homo sapiens, reduction of progressive sperm motility relative to control
Protocol: Using our previously established phenotypic human sperm motility screening platform, we screened a large subset (62,621 compounds) of one of our in-house diversity libraries (National Phenotypic Screening Centre (NPSC) Diversity Set) (Figure A,B). Briefly, human sperm are collected, isolated from semen, distributed into 384-well plates with test compounds, time-lapse images of sperm movement are recorded using a high-content imager, and progressive motility parameters are calculated using custom data analysis software. Sperm motility is complicated, and the mechanisms underpinning its regulation are not fully understood. Progressive motility, which is a measurement of the movement of forward progression of sperm, is most closely linked to sperm quality, and the percentage of progressively motile sperm compared to control is therefore the parameter utilized during the work described in this paper. […]
We used an HTS screening platform to assess the motility of live human spermatozoa. The platform and its development are described in detail in Gruber et al. , and summarized below in brief. The platform was used to screen compound libraries specifically focusing on reduction in motility. Interesting compounds were examined in further detail as possible starting points for a medicinal chemistry program. The experimental design is illustrated in Figure .
Donors were local to the Dundee area, over the age of 18, and had no known fertility problems and normal sperm concentration, motility and semen characteristics according to WHO 2021 criteria. Special category personal data for donors, such as ethnic origin, was not recorded in accordance with ethical approval and UK GDPR. Samples were obtained by masturbation, after sexual abstinence of 2–5 days, and delivered to the research laboratory within one h of production. Samples were allowed to liquefy at 37 °C for 15–30 min prior to preparation by discontinuous density gradient centrifugation (DGC). […] A minimum of 3 prepared donor samples were routinely pooled to reduce donor-to-donor variability for primary screening assays. Pooled samples were incubated for 3 h at 37 °C under noncapacitating conditions.
In brief, screening batches of cells were transferred to a robotic platform (HighRes Biosolutions Inc.) and maintained during the screen at 37 °C at 5% CO2. Assay-ready 384-well plates containing compounds were prepared prior to the screen and filled with approximately 10,000 spermatozoa (20 μL) per well using a liquid handling system (MultiDrop Combi; ThermoFisher). These plates were incubated for 10 min prior to imaging. The HTS system utilized a Yokogawa CV7000 Cell Voyager high-throughput microscope to record time-lapse images from 2 positions in each well. An adaptation of a tracking algorithm, Trackpy v0.4.1 was utilized to track individual spermatozoa within each well and obtain kinematic parameters. Within the compound-test plates, DMSO was used as the vehicle control.
All steps were performed as previously described. , In summary, data from every compound well were normalized to those from in-plate DMSO controls (wells containing the same amount of DMSO as compound wells). Two positions were recorded in every well, and the average of those positions was used for calculating % of control (median value/DMSO median) × 100. Each plate contained 16 DMSO control wells. Median curvilinear velocity (VCL) was used as the primary readout for the NPSC Diversity Set screened at 6 μM, and percentage progressive motility (PM) was used for all other libraries screened. Hits from the primary screening were chosen based on the % change compared to the control. In these experiments, an RSM of ≥20% compared to negative controls (DMSO) was chosen as a cutoff for potential progression.
In a screening program of this scale, a significant number of compounds are likely to have a negative effect on sperm motility, but a number will show general toxicity. […]

[2] = system: HepG2 cells; test: HepG2 cytotoxicity assay (resazurin, 72 h); type: cell-based, human; conditions: for EC50: Homo sapiens, HepG2, 72 h, read-out: HepG2 pEC50 (converted)
From the text: Our overarching aims for investigating our chemical series and deciding which ones had the potential for further progression were to achieve adequate potency in our motility assay, suitable solubility, and minimal cytotoxicity in HepG2 cells. This third point was often the most challenging, as multiple series had cytotoxicity in HepG2 cells. This observation is perhaps not surprising; many potential targets in sperm cells can also be found in somatic cells. Our cytotoxicity assay is run with an incubation time of 72 h, to give time for gross cytotoxic effects to become apparent.
Compound dilution curves were plated directly using a Labcyte Echo 550 acoustic dispenser (125 nL) in 384-well white clear-bottom plates (Greiner). HepG2 cells (ATCCHepG2 HB-8065) were cultured in minimum essential medium (supplemented with glutamax) with 10% FCS and plated (25 μL) using a WellMate dispenser ([…]) and incubated for 72 h. Doxorubicin was used as a positive control drug. Resazurin was then added to each well at a final concentration of 45 μM, and fluorescence was measured using a PHERAstar LS (BMG Labtech) after 4 h of further incubation (excitation of 528 nm and emission of 590 nm). Raw data were normalized to controls and expressed as % growth.
Figure S2: Concentration-response curves from high throughput HepG2 viability assay. Each compound was tested in duplicate and the curves of each replicate are shown. The reported values in the tables are an average of the 2 pEC50 values obtained. […]
determine 0% effect, positive control used to determine 100% effect).
Hit compounds 1a, 6b and 7a were repurchased from commercial suppliers including enamine and […]

[3] = Aqueous solubility; type: physicochemical
[4] = 10 min, 10 min incubation, reported <X (neg. log of top concentration) if largest reduction <70%, read-out: RSM pEC50 10 mins (converted)
[5] = 3 h incubation, reported <X if largest reduction <70%, read-out: RSM pEC50 3 hrs (converted)
[6] = 6 h incubation, reported <X if largest reduction <70%, read-out: RSM pEC50 6 hrs (converted)

EC50 [1, 4] [µM] | EC50 [1, 5] [µM] | EC50 [1, 6] [µM] | solubility [3] [µM] | Structure (SMILES) | EC50 [2] [µM] | increase in potency in the sperm motility assay ([1]; after 6 h incubation, compared with hit 2a) [log-unit] | increase in cytotoxicity against HepG2 cells ([2]; compared with hit 2a) [log] | difference between pEC50 in the sperm motility assay and pEC50 in the HepG2 cytotoxicity assay [1]
3.98 | 2.51 | 2 | 30 (≈ 15.2 µg/mL) | COc1cc(N2CCOCC2)ccc1Nc1ncc(Cl)c(Nc2ccccc2NS(C)(=O)=O)n1 [Compound 2a, N-(2-((5-Chloro-2-((2-methoxy-4-morpholinophenyl)amino)pyrimidin-4-yl)amino)phenyl)methanesulfonamide, reference compound] | 3.98 | – | – | –
2.51 | – | – | 2.2 (≈ 1.03 µg/mL) | CNC(=O)c1ccccc1Nc1nc(Nc2ccc(N3CCOCC3)cc2OC)ncc1Cl [Compound 2b] | 2 | – | – | –
5.01 | 3.16 | 3.98 | 2.3 (≈ 1.2 µg/mL) | CS(=O)(=O)Nc1cc(F)ccc1Nc1nc(Nc2ccc(C(=O)N3CCOCC3)cc2)ncc1Cl [Compound 2c] | 7.94 | – | – | –
> 31.6 | 0.126 | 0.126 | 64 (≈ 32.2 µg/mL) | CN(c1ccccc1Nc1nc(Nc2ccc(CN3CCOCC3)cc2)ncc1Cl)S(C)(=O)=O [Compound 2d] | 0.398 | 1 | 1 | –
3.98 | 2 | 1.58 | 27 (≈ 13.7 µg/mL) | CS(=O)(=O)Nc1cc(F)ccc1Nc1nc(Nc2ccc(CN3CCNCC3)cc2)ncc1Cl [Compound 2e] | 15.8 | – | – | –
> 31.6 | > 31.6 | > 31.6 | 16 (≈ 6.37 µg/mL) | CS(=O)(=O)Nc1ccccc1Nc1nc(NC2CCOCC2)ncc1Cl [Compound 2f] | 5.01 | – | – | –
> 31.6 | > 31.6 | 7.94 | 1.2 (≈ 0.399 µg/mL) | O=C(Nc1nc(-c2ccccn2)cs1)Nc1ccc(F)cc1F [Compound 3b, 1-(2,4-Difluorophenyl)-3-(4-(pyridin-2-yl)thiazol-2-yl)urea] | 7.94 | – | – | –
> 31.6 | > 31.6 | > 31.6 | 100 (≈ 31.6 µg/mL) | O=C(Nc1nc(-c2ccccn2)cs1)c1ccccc1Cl [Compound 3c] | > 100 | – | – | –
> 31.6 | > 31.6 | > 31.6 | 1.5 (≈ 0.499 µg/mL) | O=C(Nc1nc(-c2cccnc2)cs1)Nc1ccc(F)cc1F [Compound 3d] | > 100 | – | – | –
> 31.6 | > 31.6 | > 31.6 | 0.24 (≈ 0.0795 µg/mL) | O=C(Nc1nc(-c2ccccc2)cs1)Nc1ccc(F)cc1F [Compound 3e] | 50.1 | – | – | –
> 31.6 | > 31.6 | > 31.6 | 0.29 (≈ 0.107 µg/mL) | O=C(Nc1nc(-c2ccc(F)cc2F)cs1)Nc1ccc(F)cc1F [Compound 3f] | > 100 | – | – | –
> 31.6 | > 31.6 | > 31.6 | 0.89 (≈ 0.265 µg/mL) | CC(C)c1csc(NC(=O)Nc2ccc(F)cc2F)n1 [Compound 3g] | > 100 | – | – | –
> 31.6 | > 31.6 | > 31.6 | 220 (≈ 67 µg/mL) | O=C(Nc1nc(-c2ccccn2)cs1)NC1CCOCC1 [Compound 3i] | > 100 | – | – | –
> 31.6 | > 31.6 | > 31.6 | 140 (≈ 36.7 µg/mL) | CC(C)NC(=O)Nc1nc(-c2ccccn2)cs1 [Compound 3j] | > 100 | – | – | –
> 31.6 | > 31.6 | > 31.6 | 130 (≈ 39.4 µg/mL) | O=C(Nc1nc(-c2ccccn2)cs1)NC1CCNCC1 [Compound 3k] | > 100 | – | – | –
> 31.6 | > 31.6 | 7.94 | 9.3 (≈ 2.57 µg/mL) | CC(C)CNC(=O)Nc1nc(-c2ccccn2)cs1 [Compound 3l] | > 100 | – | – | –
> 31.6 | 15.8 | 2 | 0.38 (≈ 0.132 µg/mL) | Cc1sc(NC(=O)Nc2ccc(F)cc2F)nc1-c1ccccn1 [Compound 3m] | 12.6 | – | – | less than 1 log units
12.6 | 5.01 | 3.98 | 200 (≈ 52.2 µg/mL) | CC(=O)Nc1nc2c(Cl)c(Cl)ccc2s1 [Compound 4a, N-(4,5-Dichlorobenzo[d]thiazol-2-yl)acetamide] | 50.1 | – | – | ~1 log units
> 31.6 | > 31.6 | > 31.6 | 60 (≈ 13.1 µg/mL) | Nc1nc2c(Cl)c(Cl)ccc2s1 [Compound 4b] | 50.1 | – | – | –
10 | 6.31 | 5.01 | 18 (≈ 5.21 µg/mL) | CC(C)C(=O)Nc1nc2c(Cl)c(Cl)ccc2s1 [Compound 4c] | 50.1 | – | – | –
10 | 3.98 | 3.98 | 12 (≈ 3.45 µg/mL) | O=C(Nc1nc2c(Cl)c(Cl)ccc2s1)C1CC1 [Compound 4d] | 50.1 | – | – | –
> 31.6 | 6.31 | 6.31 | 4.5 (≈ 1.36 µg/mL) | CC(C)CC(=O)Nc1nc2c(Cl)c(Cl)ccc2s1 [Compound 4e] | > 100 | – | – | –
10 | 5.01 | 3.98 | 4.2 (≈ 1.32 µg/mL) | O=C(Nc1nc2c(Cl)c(Cl)ccc2s1)C1CCCC1 [Compound 4f] | 50.1 | – | – | –
10 | 3.98 | 3.98 | 0.6 (≈ 0.194 µg/mL) | O=C(Nc1nc2c(Cl)c(Cl)ccc2s1)c1ccccc1 [Compound 4g] | 100 | – | – | –
> 31.6 | > 31.6 | > 31.6 | 190 (≈ 49.8 µg/mL) | NC(=O)Nc1nc2c(Cl)c(Cl)ccc2s1 [Compound 4h] | 63.1 | – | – | –
> 31.6 | > 31.6 | > 31.6 | 5.1 (≈ 1.29 µg/mL) | O=C(Nc1nc2c(Cl)cccc2s1)C1CC1 [Compound 4i] | > 100 | – | – | –
> 31.6 | > 31.6 | > 31.6 | 3.4 (≈ 0.859 µg/mL) | O=C(Nc1nc2cc(Cl)ccc2s1)C1CC1 [Compound 4j] | > 100 | – | – | –
> 31.6 | > 31.6 | > 31.6 | 8.5 (≈ 2.16 µg/mL) | O=C(Nc1nc2c(F)c(F)ccc2s1)C1CC1 [Compound 4k] | > 100 | – | – | –
> 31.6 | > 31.6 | > 31.6 | 4 (≈ 1.02 µg/mL) | O=C(Nc1nc2cc(F)c(F)cc2s1)C1CC1 [Compound 4l] | > 100 | – | – | –
